Key:
lung cancer cells (A549) = assay: Evaluation of the pharmacological efficacy of an MMP-1 inhibitor using a microfluidic chip (lung cancer cell travel distance, vascular cell migration area); format: cell-based
Method: In order to evaluate the efficacy of an anticancer medicine using a microfluidic chip, lung cancer cells (A549, ATCC) were seeded into a microfluidic chip using the same method as in Example 1. Secondarily, vascular cells were seeded (day 0).

[1] = tested on: pancreatic cancer cells (Mia Paca-2); assay: Evaluation of the pharmacological efficacy of gemcitabine using a microfluidic chip (spread range of cancer cells); format: cell-based
Method: In order to evaluate the efficacy of an anticancer medicine using a microfluidic chip, pancreatic cancer cells (Mia Paca-2, ATCC) were seeded into a microfluidic chip using the same method as in Example 2. Secondarily, vascular cells (HUVEC, purchased from ATCC) were seeded. Once the cells were confirmed to be attached (day 0: cell seeding date), gemcitabine (Eli Lilly and Company, USA) was administered 3 days later to measure the spread range of the cancer cells. As shown in FIGS. 20A to 20C, the growth and development of cells were observed from the time of cell seeding (day 0) to the 7th day after the drug treatment (day 3). For observation of the cells, an optical microscope image (EVOS, LifeScience, 100 magnification) and a fluorescence microscope image (EVOS, LifeScience, 100 magnification) were superposed. FIGS. 20B and 20C show the results of observation of the cell development using an optical microscope and a fluorescence microscope. The eight images of FIG. 20B, labeled as normal cultures, were those treated with DMSO at day 3 and observed up to day 7. The eight pictures of FIG. 20C, labeled drug treatment, were those treated with gemcitabine on day 3 and observed up to day 7. FIG. 20A is a graph in which the growth width of the cancer cells was statistically quantified from FIGS. 20B and 20C using an Origin […] […]

[2] = A549 with vascular cells in microfluidic chip, inhibitor given 1 day after seeding, increasing concentration (10 μM, 50 μM, 100 μM)

Compound	metastatic process of lung cancer cells (lung cancer cells (A549); A549 cultured in the cell culture device (microfluidic chip))	migration area of the vascular cells (lung cancer cells (A549); [2])	travel distance of the lung cancer cells (lung cancer cells (A549); [2])	distribution area of the cancer cells ([1]; Mia Paca-2 co-seeded with HUVEC in microfluidic chip, drug on day 3, observed up to day 7, compared with cells not treated with gemcitabine (DMSO))	growth of pancreatic cancer cells ([1]; Mia Paca-2 in microfluidic chip, gemcitabine on day 3, observed up to day 7)
CNC(=O)[C@H](Cc1c[nH]c2ccccc12)NC(=O)[C@@H](CC(=O)NO)CC(C)C [MMP-1 inhibitor]	inhibits the metastatic process of lung cancer cells	reduced	gradually reduced		
Nc1ccn([C@@H]2O[C@H](CO)[C@@H](O)C2(F)F)c(=O)n1 [gemcitabine, 4-amino-1-(2-deoxy-2,2-difluoro-β-D-erythro-pentofuranosyl)pyrimidin-2(1H)-on]				decreased	inhibits the growth of pancreatic cancer cells
